In ChEMBL document CHEMBL1145783, “Development of an orexin-2 receptor selective agonist, [Ala(11), D-Leu(15)]orexin-B” (Bioorg Med Chem Lett, 2003):
Residues, ends and D or L forms follow the SMILES beside them. *: point of attachment. X1 = C[C@H](NC(=O)N1CCC[C@H]1C(=O)NCC(=O)N[C@@H](CO)C(=O)N[C@@H](CCCN=C(N)N)C(N)=O)C(=O)NC(=O)CN*

molecular target: T1, Orexin receptor type 2 (Homo sapiens, UniProt O43614); experiment: Agonist activity against human orexin 2 receptor; EC50; nM; assay type: functional
T1 sequence (O43614 whole entry): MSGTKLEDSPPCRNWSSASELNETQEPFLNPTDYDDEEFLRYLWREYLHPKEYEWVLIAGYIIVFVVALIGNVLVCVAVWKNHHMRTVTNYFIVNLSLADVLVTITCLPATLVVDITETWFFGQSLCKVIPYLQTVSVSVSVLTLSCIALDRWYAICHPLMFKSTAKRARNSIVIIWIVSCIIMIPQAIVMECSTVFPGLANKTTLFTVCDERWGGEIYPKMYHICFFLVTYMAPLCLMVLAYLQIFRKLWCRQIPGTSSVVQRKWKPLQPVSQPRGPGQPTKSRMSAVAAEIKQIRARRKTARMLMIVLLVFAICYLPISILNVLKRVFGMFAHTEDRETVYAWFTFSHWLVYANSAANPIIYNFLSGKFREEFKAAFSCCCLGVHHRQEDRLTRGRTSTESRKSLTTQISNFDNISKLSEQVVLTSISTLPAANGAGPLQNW

EC50 [nM]	Compound
> 1400	CC[C@H](C)[C@@H](NC(=O)[C@H](CC(C)C)NC(=O)[C@@H](NC(=O)[C@@H](N)CCSC)[C@@H](C)O)C(=O)NCC(=O)N[C@@H](C)C(=O)N[C@@H](C)C(=O)N[C@@H](Cc1c[nH]cn1)C(=O)N[C@@H](CC(N)=O)C(=O)NCC(=O)N[C@@H](CO)C(=O)N[C@@H](C)C(=O)N[C@@H](CCC(N)=O)C(=O)N[C@@H](CC(C)C)C(=O)N[C@@H](CC(C)C)C(=O)N[C@@H](CCCN=C(N)N)C(=O)N[C@@H](CCC(N)=O)C(=O)N[C@@H](CC(C)C)C(=O)N[C@@H](CCCN=C(N)N)C(=O)NCC(=O)N[C@@H](CCC(N)=O)C(=O)N[C@@H](CC(C)C)C(=O)NCC(=O)N1CCC[C@H]1C(=O)N1CCC[C@H]1C(=O)NCC(=O)N[C@@H](CO)C(=O)N[C@@H](CCCN=C(N)N)C(N)=O
2.2	H-MTLIGAAHNGSAQALRQLRGQLGPPGSR-NH2
14	CC[C@H](C)[C@H](NC(=O)[C@H](CC(C)C)NC(=O)[C@@H](NC(=O)[C@@H](N)CCSC)[C@@H](C)O)C(=O)NCC(=O)N[C@H](C)C(=O)N[C@@H](C)C(=O)N[C@@H](Cc1c[nH]cn1)C(=O)N[C@@H](CC(N)=O)C(=O)NCC(=O)N[C@@H](CO)C(=O)N[C@@H](C)C(=O)N[C@@H](CCC(N)=O)C(=O)N[C@@H](CC(C)C)C(=O)N[C@@H](CC(C)C)C(=O)N[C@@H](CCCN=C(N)N)C(=O)N[C@@H](CCC(N)=O)C(=O)N[C@@H](CC(C)C)C(=O)N[C@@H](CCCN=C(N)N)C(=O)NCC(=O)N[C@@H](CCC(N)=O)C(=O)N[C@@H](CC(C)C)C(=O)NCC(=O)N1CCC[C@H]1C(=O)N1CCC[C@H]1C(=O)NCC(=O)N[C@@H](CO)C(=O)N[C@@H](CCCN=C(N)N)C(N)=O
0.18	CC[C@H](C)[C@H](NC(=O)[C@H](CC(C)C)NC(=O)[C@@H](NC(=O)[C@@H](N)CCSC)[C@@H](C)O)C(=O)NCC(=O)N[C@@H](C)C(=O)N[C@@H](C)C(=O)N[C@@H](Cc1c[nH]cn1)C(=O)N[C@@H](CC(N)=O)C(=O)NCC(=O)N[C@@H](CO)C(=O)N[C@@H](C)C(=O)N[C@@H](CCC(N)=O)C(=O)N[C@@H](CC(C)C)C(=O)N[C@@H](CC(C)C)C(=O)N[C@@H](CCCN=C(N)N)C(=O)N[C@@H](CCC(N)=O)C(=O)N[C@@H](CC(C)C)C(=O)N[C@@H](CCCN=C(N)N)C(=O)NCC(=O)N[C@@H](CCC(N)=O)C(=O)N[C@@H](CC(C)C)C(=O)NCC(=O)N1CCC[C@H]1C(=O)N1CCC[C@H]1C(=O)N[C@@H](C)C(=O)N[C@@H](CO)C(=O)N[C@@H](CCCN=C(N)N)C(N)=O
0.15	H-MTLIGAAHNGSAQLLRQWRGQLGPPGSR-NH2
9.7	H-MALIGAAHNGSAQLLRQLRGQLGPPGSR-NH2
0.19	CC[C@H](C)[C@H](NC(=O)[C@H](CC(C)C)NC(=O)[C@@H](NC(=O)[C@@H](N)CCSC)[C@@H](C)O)C(=O)NCC(=O)N[C@@H](C)C(=O)N[C@@H](C)C(=O)N[C@@H](Cc1c[nH]cn1)C(=O)N[C@@H](CC(N)=O)C(=O)NCC(=O)N[C@@H](CO)C(=O)N[C@@H](C)C(=O)N[C@@H](CCC(N)=O)C(=O)N[C@@H](CC(C)C)C(=O)N[C@@H](CC(C)C)C(=O)N[C@@H](CCCN=C(N)N)C(=O)N[C@@H](CCC(N)=O)C(=O)N[C@@H](CC(C)C)C(=O)N[C@@H](CCCN=C(N)N)C(=O)NCC(=O)N[C@@H](CCC(N)=O)C(=O)N[C@@H](CC(C)C)C(=O)NCC(=O)N1CCC[C@H]1C(=O)N1CCC[C@H]1C(=O)NCC(=O)N[C@@H](CO)C(=O)N[C@H](CCCN=C(N)N)C(N)=O
0.29	CC[C@H](C)[C@H](NC(=O)[C@H](CC(C)C)NC(=O)[C@@H](NC(=O)[C@@H](N)CCSC)[C@@H](C)O)C(=O)NCC(=O)N[C@@H](C)C(=O)N[C@@H](C)C(=O)N[C@@H](Cc1c[nH]cn1)C(=O)N[C@@H](CC(N)=O)C(=O)NCC(=O)N[C@@H](CO)C(=O)N[C@@H](C)C(=O)N[C@@H](CCC(N)=O)C(=O)N[C@@H](CC(C)C)C(=O)N[C@@H](CC(C)C)C(=O)N[C@@H](CCCN=C(N)N)C(=O)N[C@@H](CCC(N)=O)C(=O)N[C@@H](CC(C)C)C(=O)N[C@@H](CCCN=C(N)N)C(=O)NCC(=O)N[C@@H](CCC(N)=O)C(=O)N[C@@H](CC(C)C)C(=O)NCC(=O)NC(=O)[C@H](C)NC(=O)N1CCC[C@H]1C(=O)NCC(=O)N[C@@H](CO)C(=O)N[C@@H](CCCN=C(N)N)C(N)=O (H-MTLIGAAHNGSAQLLRQLRGQL-X1)
0.15	CC[C@H](C)[C@H](NC(=O)[C@H](CC(C)C)NC(=O)[C@@H](NC(=O)[C@@H](N)CCSC)[C@@H](C)O)C(=O)NCC(=O)N[C@@H](C)C(=O)N[C@@H](C)C(=O)N[C@@H](Cc1c[nH]cn1)C(=O)N[C@@H](CC(N)=O)C(=O)NCC(=O)N[C@@H](CO)C(=O)N[C@@H](C)C(=O)N[C@@H](CCC(N)=O)C(=O)N[C@@H](CC(C)C)C(=O)N[C@@H](CC(C)C)C(=O)N[C@@H](CCCN=C(N)N)C(=O)N[C@@H](CCC(N)=O)C(=O)N[C@@H](CC(C)C)C(=O)N[C@@H](CCCN=C(N)N)C(=O)NCC(=O)N[C@@H](CCC(N)=O)C(=O)N[C@@H](CC(C)C)C(=O)NCC(=O)N1CCC[C@H]1C(=O)N1CCC[C@@H]1C(=O)NCC(=O)N[C@@H](CO)C(=O)N[C@@H](CCCN=C(N)N)C(N)=O
0.46	CC[C@H](C)[C@H](NC(=O)[C@H](CC(C)C)NC(=O)[C@@H](NC(=O)[C@@H](N)CCSC)[C@@H](C)O)C(=O)NCC(=O)N[C@@H](C)C(=O)N[C@@H](C)C(=O)N[C@@H](Cc1c[nH]cn1)C(=O)N[C@@H](CC(N)=O)C(=O)NCC(=O)N[C@H](CO)C(=O)N[C@@H](C)C(=O)N[C@@H](CCC(N)=O)C(=O)N[C@@H](CC(C)C)C(=O)N[C@@H](CC(C)C)C(=O)N[C@@H](CCCN=C(N)N)C(=O)N[C@@H](CCC(N)=O)C(=O)N[C@@H](CC(C)C)C(=O)N[C@@H](CCCN=C(N)N)C(=O)NCC(=O)N[C@@H](CCC(N)=O)C(=O)N[C@@H](CC(C)C)C(=O)NCC(=O)N1CCC[C@H]1C(=O)N1CCC[C@H]1C(=O)NCC(=O)N[C@@H](CO)C(=O)N[C@@H](CCCN=C(N)N)C(N)=O
0.16	CC[C@H](C)[C@H](NC(=O)[C@H](CC(C)C)NC(=O)[C@@H](NC(=O)[C@@H](N)CCSC)[C@@H](C)O)C(=O)NCC(=O)N[C@@H](C)C(=O)N[C@@H](C)C(=O)N[C@@H](Cc1cnc[nH]1)C(=O)N[C@@H](CC(N)=O)C(=O)NCC(=O)N[C@@H](CO)C(=O)N[C@@H](C)C(=O)N[C@@H](CCC(N)=O)C(=O)N[C@@H](CC(C)C)C(=O)N[C@@H](CC(C)C)C(=O)N[C@@H](CCCN=C(N)N)C(=O)N[C@@H](CCC(N)=O)C(=O)N[C@@H](CC(C)C)C(=O)N[C@@H](CCCN=C(N)N)C(=O)NCC(=O)N[C@@H](CCC(N)=O)C(=O)N[C@@H](CC(C)C)C(=O)NCC(=O)N1CCC[C@H]1C(=O)N1CCC[C@H]1C(=O)N[C@H](C)C(=O)N[C@@H](CO)C(=O)N[C@@H](CCCN=C(N)N)C(N)=O
140	H-MTAIGAAHNGSAQLLRQLRGQLGPPGSR-NH2
0.26	CC[C@H](C)[C@H](NC(=O)[C@H](CC(C)C)NC(=O)[C@@H](NC(=O)[C@@H](N)CCSC)[C@@H](C)O)C(=O)NCC(=O)N[C@@H](C)C(=O)N[C@@H](C)C(=O)N[C@@H](Cc1cnc[nH]1)C(=O)N[C@@H](CC(N)=O)C(=O)NCC(=O)N[C@@H](CO)C(=O)N[C@H](C)C(=O)N[C@@H](CCC(N)=O)C(=O)N[C@@H](CC(C)C)C(=O)N[C@@H](CC(C)C)C(=O)N[C@@H](CCCN=C(N)N)C(=O)N[C@@H](CCC(N)=O)C(=O)N[C@@H](CC(C)C)C(=O)N[C@@H](CCCN=C(N)N)C(=O)NCC(=O)N[C@@H](CCC(N)=O)C(=O)N[C@@H](CC(C)C)C(=O)NCC(=O)N1CCC[C@H]1C(=O)N1CCC[C@H]1C(=O)NCC(=O)N[C@@H](CO)C(=O)N[C@@H](CCCN=C(N)N)C(N)=O
> 390	CSCC[C@H](N)C(=O)N[C@H](C(=O)N[C@@H](CC(C)C)C(=O)N[C@H](C)C(=O)NCC(=O)N[C@@H](C)C(=O)N[C@@H](C)C(=O)N[C@@H](Cc1c[nH]cn1)C(=O)N[C@@H](CC(N)=O)C(=O)NCC(=O)N[C@@H](CO)C(=O)N[C@@H](C)C(=O)N[C@@H](CCC(N)=O)C(=O)N[C@@H](CC(C)C)C(=O)N[C@@H](CC(C)C)C(=O)N[C@@H](CCCN=C(N)N)C(=O)N[C@@H](CCC(N)=O)C(=O)N[C@@H](CC(C)C)C(=O)N[C@@H](CCCN=C(N)N)C(=O)NCC(=O)N[C@@H](CCC(N)=O)C(=O)N[C@@H](CC(C)C)C(=O)NCC(=O)N1CCC[C@H]1C(=O)N1CCC[C@H]1C(=O)NCC(=O)N[C@@H](CO)C(=O)N[C@@H](CCCN=C(N)N)C(N)=O)[C@@H](C)O
0.23	H-MTLIGAAHNGSAQLLRALRGQLGPPGSR-NH2
0.72	H-MTLIGAAANGSAQLLRQLRGQLGPPGSR-NH2
1.2	H-MTLIGAAHNGSAQLLRQSRGQLGPPGSR-NH2
0.46	H-MTLIGAAHNGSAQLLRQLRGALGPPGSR-NH2
0.6	CC[C@H](C)[C@H](NC(=O)[C@H](CC(C)C)NC(=O)[C@@H](NC(=O)[C@@H](N)CCSC)[C@@H](C)O)C(=O)NCC(=O)N[C@@H](C)C(=O)N[C@@H](C)C(=O)N[C@@H](Cc1cnc[nH]1)C(=O)N[C@@H](CC(N)=O)C(=O)NCC(=O)N[C@@H](CO)C(=O)N[C@@H](C)C(=O)N[C@@H](CCC(N)=O)C(=O)N[C@@H](CC(C)C)C(=O)N[C@@H](CC(C)C)C(=O)N[C@@H](CCCN=C(N)N)C(=O)N[C@@H](CCC(N)=O)C(=O)N[C@H](CC(C)C)C(=O)N[C@@H](CCCN=C(N)N)C(=O)NCC(=O)N[C@@H](CCC(N)=O)C(=O)N[C@@H](CC(C)C)C(=O)NCC(=O)N1CCC[C@H]1C(=O)N1CCC[C@H]1C(=O)NCC(=O)N[C@@H](CO)C(=O)N[C@@H](CCCN=C(N)N)C(N)=O
